Molecules are shown by their SMILES.

Experiment [1] concerns the target T1, EML4-ALK fusion polypeptide v2 (Homo sapiens, UniProt Q9UM73, D1529E/I1461V/K1491R).
T1 construct: expressed in transfected cells; host or cells: 293EBNA cells (Invitrogen) transfected with FLAG-EML4-ALKv2/pcDNA3
The experiment is described as follows: intracellular autophosphorylation of EML4-ALK fusion polypeptide v2 in 293EBNA cells. The note with it: final concentration 10 nM, 4 hours. It is filed as cell-based.

The test system of experiment [2] is EML4-ALK fusion polypeptide v1. The experiment is described as follows: intracellular autophosphorylation of EML4-ALK fusion polypeptide v1 in v1 expressing BA/F3 cells. It is filed as cell-based, human. Particulars: for Inhibition on autophosphorylation (BA/F3cells): 6 hours. The protocol: Compound A (1 μM, 5 μM and 10 μM) was added to the culture medium of v1 expressing BA/F3 cells (Example 5(1)) or not added, and cultured for 3 hours. In addition, BA/F3 cells expressing FLAG-EML4-ALKv1(K589M) were produced using pMX-iresCD8 vector in which EML4-ALK (K589M) was integrated so that FLAG can be added, and cultured. After culturing, cells were counted and the level of phosphorylation of tyrosine of EML4-ALK fusion polypeptide v1 was measured by immunoblotting using anti-phosphorylated ALK antibody. Further, for the same transfer membrane, immunoblotting analysis by anti-FLAG tag antibody (Eastman Kodak Inc.) was carried out, and total protein quantity of the FLAG attached EML4-ALK fusion polypeptide v1 was measured.
However, the culturing time after the addition of the compounds was 6 hours, and the total protein amount of the EML4-ALK fusion polypeptide v1 was measured using anti-ALK antibody. In addition, the amount of phosphorylation was calculated by quantitating as in Example 7(2). Also, for compound A, the amount of phosphorylation was calculated by quantitating in experiment under this condition. The rate of inhibition was calculated from the amount of phosphorylation when the compound was added, using the value when the compound was not added (the solvent of the compound, DMSO was added) as a control (0% inhibition).

Experiment [3] deals with T2, EML4-ALK fusion polypeptide v1 (Homo sapiens, UniProt Q9UM73, D1529E/I1461V/K1491R).
T2 construct: expressed in transfected cells; host or cells: mouse 3T3 fibroblasts transfected with EML4-ALKv1/pMXS (v1 expressing 3T3 cells); for A10, grown as a subcutaneous tumour in nude mice
T2 sequence (Q9UM73 with tags, fused parts or gaps I1461V/K1491R/D1529E): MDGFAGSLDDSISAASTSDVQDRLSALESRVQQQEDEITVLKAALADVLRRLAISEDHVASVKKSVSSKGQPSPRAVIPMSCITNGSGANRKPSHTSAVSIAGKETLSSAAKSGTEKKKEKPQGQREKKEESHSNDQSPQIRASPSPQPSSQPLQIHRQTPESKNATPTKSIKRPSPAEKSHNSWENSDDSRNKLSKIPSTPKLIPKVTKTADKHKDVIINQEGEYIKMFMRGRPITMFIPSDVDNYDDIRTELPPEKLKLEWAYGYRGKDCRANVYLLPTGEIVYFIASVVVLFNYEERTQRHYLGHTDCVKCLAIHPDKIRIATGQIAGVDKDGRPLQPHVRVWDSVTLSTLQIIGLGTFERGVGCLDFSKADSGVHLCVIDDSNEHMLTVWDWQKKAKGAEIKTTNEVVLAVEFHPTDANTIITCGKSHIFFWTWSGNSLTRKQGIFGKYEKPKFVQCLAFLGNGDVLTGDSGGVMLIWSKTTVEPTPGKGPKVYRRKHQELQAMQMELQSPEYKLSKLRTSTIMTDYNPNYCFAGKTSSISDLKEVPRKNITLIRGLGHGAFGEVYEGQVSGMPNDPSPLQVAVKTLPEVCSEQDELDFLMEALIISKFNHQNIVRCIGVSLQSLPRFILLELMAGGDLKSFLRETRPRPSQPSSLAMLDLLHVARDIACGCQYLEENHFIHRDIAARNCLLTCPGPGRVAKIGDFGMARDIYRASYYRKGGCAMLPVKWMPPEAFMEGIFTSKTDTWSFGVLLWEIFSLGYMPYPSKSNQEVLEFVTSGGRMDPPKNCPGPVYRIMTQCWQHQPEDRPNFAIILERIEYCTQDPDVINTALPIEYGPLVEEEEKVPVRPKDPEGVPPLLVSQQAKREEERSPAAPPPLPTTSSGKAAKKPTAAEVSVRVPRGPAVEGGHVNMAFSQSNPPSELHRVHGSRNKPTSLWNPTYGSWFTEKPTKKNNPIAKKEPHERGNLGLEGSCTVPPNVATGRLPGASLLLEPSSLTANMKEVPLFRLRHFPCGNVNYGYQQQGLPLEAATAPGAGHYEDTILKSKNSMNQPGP
Put plainly: intracellular autophosphorylation of EML4-ALK fusion polypeptide v1 in v1 expressing 3T3 cells. The class given is cell-based. The note with it: 4 hours.

Experiment [4] deals with EML4-ALK fusion polypeptide v1. The experiment is described as follows: in vitro kinase activity (autophosphorylation) of purified EML4-ALK fusion polypeptide v1, immunoblotting with anti-phosphorylated ALK antibody. It is filed as biochemical, human. The protocol:
(§1) The v1 expressing BA/F3 cells (Example 5(1)) were cultured in RPM1640 medium containing 10% of fetal bovine scrum to obtain 2.7×10^9 cells. After washing 3 times with PBS, cells were lysed in a lysis solution (50 mM Tris HCl (pH7.4), 150 mM NaCl, 1% Triton×100, 5 mM EDTA, 5 mM EGTA, 1 mM NaVO4, 1 mM DTT and protease inhibitor cocktail complete). The EML4-ALK fusion polypeptide v1 present in the supernatant obtained after a centrifugation was purified using ANTI-FLAG M2 Affinity Gel (SIGMA-ALDRICH Inc) according to the method described in the product information document. For washing and elution, the washing solution (50 mM Tris.HCl (pH7.4), 250 mM NaCl, 0.05% Brij35, 1 mM EDTA, 1 mM EGTA, 1 mM NaVO4, 1 mM DTT, complete) and the elution solution (50 mM Tris.HCl (pH7.4), 150 mM NaCl, 0.05% Brij35, 1 mM DTT, 0.5 mg/mL FLAG peptide) were used, respectively. Immunoblotting using anti-ALK antibody and anti FLAG M2 antibody (SIGMA-ALDRICH Inc.) and silver staining were carried out for the eluate to detect the EML4-ALK fusion polypeptide v1.
The EML4-ALK fusion polypeptide v1 purified as described above was diluted in a reaction solution (15 mM Tris HCl (pH7.4), 0.25 mM MgCl2, 0.01% Tween-20, 2 mM DTT), and then ATP was not added or ATP 20 μM was added. The respective mixtures were reacted at room temperature for 1 hour. After the reaction, the auto phosphorylated EML4-ALK fusion polypeptide v1 and the EML4-ALK fusion polypeptide v1 were detected by immunoblotting using anti-phosphorylated ALK antibody, which recognizes specifically the product phosphorylated at the 1604th tyrosine residue of ALK, and anti-ALK antibody, and quantitated by an image analysis system (VersaDoc Imaging System; Bio-Rad Inc.). The amount of phosphorylation was calibrated by dividing the count of the autophosphorylated EML4-ALK fusion polypeptide v1 by the count of the EML4-ALK fusion polypeptide v1. As the result, the autophosphorylated EML4-ALK fusion polypeptide v1 band was detected at the location of about 130 kDa under the condition of ATP addition, and the amount of phosphorylation was increased by about 205 folds compared to no-ATP addition.
(§2) The inhibitory effect of compound A-D against the in vitro kinase activity of the EML4-ALK fusion polypeptide v1 was investigated using anti-phosphorylated ALK antibody and the kinase activity detection kit. Respective compounds were added to the reaction solution containing the EML4-ALK fusion polypeptide v1 at a final concentration of 10 μM or 10 nM, and then the reaction was carried out with or without the addition of ATP. The rest of the operations were carried out according to the method (2) described above. […] The inhibition (%) of the kinase activity of the EML4-ALK fusion polypeptide v1 by a compound was calculated by the following formula. […]

The test system of experiment [5] is EML4-ALK fusion polypeptide v1. The experiment is described as follows: in vitro phosphorylation of peptide substrate (TK substrate 1) by EML4-ALK fusion polypeptide v1, HTRF KinEASE-TK kit. It is filed as biochemical, human. The protocol: as §1
In addition, the phosphorylation activity toward a peptide substrate was investigated using a kinase activity detection kit (HTRF KinEASE-TK; Cisbio Inc.). Using TK substrate 1, which was included in the kit, as the substrate, and after adding no ATP or 100 μM ATP, the mixtures were reacted at room temperature for 1 hour, and the count of HTRF was detected as recommended by the Kits manufacturer. As the result it became clear that the count of HTRF (that is, phosphorylation of the peptide substrate) was increased by about 12 times by the addition of ATP compare to no addition of ATP. As shown above, the in vitro kinase activity of the EML4-ALK fusion polypeptide v1 can be detected using anti-phosphorylated ALK antibody and the kinase activity detection kit.
as §2
For orientation: Time-resolved FRET reads energy transfer from a long-lived donor to a nearby acceptor.

The subject of a further experiment is U-87MG cells. Put plainly: anchorage independent growth on spheroid plate, U-87MG cells expressing full length ALK. Particulars: 3 days. It is filed as cell-based, human. Here is the method: (§3) The v1 expressing 3T3 cells (Example 6(1)) and one of the human glioma cells expressing the full length ALK polypeptide and not expressing EML4-ALK fusion polynucleotide endogenously, U-87 MG cells, were seeded to a 96 well spheroid plate (Sumilon Celltight Spheroid 96U, Sumitomo Bakelite Inc.) at 3000 cells per well in a medium containing 10% fetal bovine serum (DMEM for v1 expressing 3T3 cells and RPMI 1640 for U-87MG). […] At the same time, cells were counted before the addition of drugs (Day 0). Then, cells were cultured under 5% CO2, at 37° C. for 3 days, mixed with a reagent for measuring cell number (CellTiter-Glo™ Luminescent Cell Viability Assay; Promega Inc.) stirred for 20 minutes, and the measurements (day 3) were carried out using a luminometer (ML3000 microtiter plate luminometer; Dynatech Laboratories Inc.).

The subject of a further experiment is v1 expressing 3T3 cells. Put plainly: anchorage independent growth on spheroid plate, v1 expressing 3T3 cells. It is filed as cell-based, mouse. Here is the method:
as §3

In experiment [6] the test system is v1 expressing 3T3 cells (tumor). The experiment is described as follows: anti-tumor test against v1 expressing 3T3 cells inoculated subcutaneously in nude mice. The class given is in vivo, mouse. The note with it: once a day for 10 days, start 6 days after inoculation, otherwise similar procedure. The protocol:
Administrations were performed once a day for 14 days, and body weight and tumor size were measured every other day. Tumor volume was calculated using the following formula. […] The administration of the compound D was started after 6 days of the inoculation and carried out once a day for 10 days, and then the tumor size was measured.

For another experiment, the target named is T3, NPM-ALK (Homo sapiens, UniProt Q9UM73).
T3 construct: the other entry of the earlier key: NPM1 (P06748, Nucleophosmin)
T3 sequence (Q9UM73 with tags, fused parts or gaps): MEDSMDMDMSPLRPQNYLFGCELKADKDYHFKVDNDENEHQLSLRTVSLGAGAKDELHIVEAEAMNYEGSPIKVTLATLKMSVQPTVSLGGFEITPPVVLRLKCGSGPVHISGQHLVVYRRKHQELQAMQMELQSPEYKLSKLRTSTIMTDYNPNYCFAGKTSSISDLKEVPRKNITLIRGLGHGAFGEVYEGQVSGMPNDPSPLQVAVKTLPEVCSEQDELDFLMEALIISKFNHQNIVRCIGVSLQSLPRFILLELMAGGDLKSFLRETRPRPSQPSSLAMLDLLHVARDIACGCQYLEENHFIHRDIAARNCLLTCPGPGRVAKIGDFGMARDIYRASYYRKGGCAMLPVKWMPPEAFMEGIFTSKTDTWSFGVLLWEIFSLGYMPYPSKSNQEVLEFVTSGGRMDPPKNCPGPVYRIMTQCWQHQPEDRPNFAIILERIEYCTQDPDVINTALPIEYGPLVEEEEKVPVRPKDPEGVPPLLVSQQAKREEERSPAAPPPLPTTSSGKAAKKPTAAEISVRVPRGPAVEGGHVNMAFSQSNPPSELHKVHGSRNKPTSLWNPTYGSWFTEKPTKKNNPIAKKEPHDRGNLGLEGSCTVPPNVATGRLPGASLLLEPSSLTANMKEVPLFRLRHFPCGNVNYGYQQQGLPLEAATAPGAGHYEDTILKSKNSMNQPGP
Particulars: Non-Patent Document 22; cited from earlier work.

The test system of experiment [7] is v1 expressing BA/F3 cells. Put plainly: growth of v1 expressing BA/F3 cells in the absence of IL-3. The note with it: 1 μM, 5 μM or 10 μM. The class given is cell-based, mouse. Here is the method:
Next, compound A, which is a substance that inhibits the EML4-ALK fusion polypeptide v1, was added to BA/F3 cells which obtained the IL-3 independent growth potential by expressing the EML4-ALK fusion polypeptide v1, and its effect on cell growth was investigated. […] That is, it was confirmed that cells, growing dependently on the EML4-ALK fusion polynucleotide (oncogene), were killed by an inhibitor of the EML4-ALK fusion polypeptide v1.

Experiment [8] has as its system CD8 expressing BA/F3 cells. Put plainly: growth of CD8 expressing BA/F3 cells in the presence of IL-3. It is filed as cell-based, mouse. The note with it: 1 μM, 5 μM or 10 μM.

T1 sequence (Q9UM73 with tags, fused parts or gaps I1461V/K1491R/D1529E): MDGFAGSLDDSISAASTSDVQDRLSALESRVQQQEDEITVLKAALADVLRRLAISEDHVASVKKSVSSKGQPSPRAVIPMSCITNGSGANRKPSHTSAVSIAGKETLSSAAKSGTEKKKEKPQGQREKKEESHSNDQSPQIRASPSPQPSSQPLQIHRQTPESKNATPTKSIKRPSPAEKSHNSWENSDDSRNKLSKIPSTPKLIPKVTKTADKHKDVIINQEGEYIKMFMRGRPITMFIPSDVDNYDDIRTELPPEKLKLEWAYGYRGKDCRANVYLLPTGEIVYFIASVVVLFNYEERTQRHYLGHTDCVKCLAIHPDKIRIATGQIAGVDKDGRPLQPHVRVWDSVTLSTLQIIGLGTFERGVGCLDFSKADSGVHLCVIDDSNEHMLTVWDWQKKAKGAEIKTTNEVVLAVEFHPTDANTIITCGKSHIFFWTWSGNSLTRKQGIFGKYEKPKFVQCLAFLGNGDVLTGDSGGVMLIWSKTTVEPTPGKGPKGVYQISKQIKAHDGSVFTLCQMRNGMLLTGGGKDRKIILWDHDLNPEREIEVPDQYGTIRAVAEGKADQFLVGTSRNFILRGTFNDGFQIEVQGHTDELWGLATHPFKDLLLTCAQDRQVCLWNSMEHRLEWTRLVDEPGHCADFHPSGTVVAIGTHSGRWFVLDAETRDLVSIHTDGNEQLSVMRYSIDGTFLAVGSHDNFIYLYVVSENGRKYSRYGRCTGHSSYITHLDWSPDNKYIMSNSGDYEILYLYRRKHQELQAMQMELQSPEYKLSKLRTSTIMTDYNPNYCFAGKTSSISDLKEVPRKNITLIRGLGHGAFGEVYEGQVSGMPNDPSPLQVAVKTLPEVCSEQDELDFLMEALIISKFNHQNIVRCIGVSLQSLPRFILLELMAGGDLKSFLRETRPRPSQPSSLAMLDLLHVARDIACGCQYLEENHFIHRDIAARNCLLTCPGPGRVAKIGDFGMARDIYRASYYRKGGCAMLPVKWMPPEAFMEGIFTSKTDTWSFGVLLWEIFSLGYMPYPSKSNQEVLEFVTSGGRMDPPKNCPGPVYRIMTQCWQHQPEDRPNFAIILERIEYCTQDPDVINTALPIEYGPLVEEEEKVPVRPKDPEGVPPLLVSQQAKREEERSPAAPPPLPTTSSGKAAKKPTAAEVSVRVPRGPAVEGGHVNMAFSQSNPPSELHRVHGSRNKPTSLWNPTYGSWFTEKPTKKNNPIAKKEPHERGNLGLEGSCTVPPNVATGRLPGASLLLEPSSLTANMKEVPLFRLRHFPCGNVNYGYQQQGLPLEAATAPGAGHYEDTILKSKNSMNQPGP

A word on the inhibition: it is the relative decrease from the control value, in per cent. On to `CNS(=O)(=O)c1ccccc1Nc1nc(Nc2ccc(N3CCN(C)CC3)cc2OC)ncc1Br` [compound D, 2-[(5-bromo-2-{[2-methoxy-4-(4-methylpiperazin-1-yl)phenyl]amino}pyrimidin-4-yl)amino]-N-methylbenzenesulfonamide], for which the inhibition at 0.01 µM was 95% in [1]; 86% in [3] (NIH3T3, final concentration 10 nM, read-out: Inhibition on autophosphorylation (3T3cells)); -2% in the experiment on U-87MG cells (Homo sapiens, U-87 MG, 72 h, final concentration 10 nM, read-out: inhibition rate of anchorage independent growth, U-87MG cell); 135% with v1 expressing 3T3 cells (Mus musculus, NIH3T3, read-out: inhibition rate of anchorage independent growth, v1 expressing 3T3 cells). In addition, in [2] (final concentration 10 nM), the “Inhibition on autophosphorylation (BA/F3cells)” value amounted to 90%. The Inhibition on autophosphorylation in experiment [4] (final concentration 10 nM) is 96%. For the same compound, the “Inhibition on peptide substrate” value in experiment [5] (final concentration 10 nM) amounted to 99%. The “inhibition of growth of v1 expressing 3T3 cells (tumor), tumor volume” value in experiment [6] was 101%.

Consider `COc1cc2ncnc(Nc3ccc(O)c(Br)c3)c2cc1OC` [compound A, 4-[(3′-Bromo-4′-hydroxyphenyl)amino]-6,7-dimethoxyquinazoline], for which, on NPM-ALK, the “activity of NPM-ALK” value was “inhibit the activity of NPM-ALK”. In addition, in experiment [2] (1 μM, 5 μM and 10 μM, 3 hours), the “intracellular autophosphorylation of the EML4-ALK fusion polypeptide v1 (FIG. 4)” value was “inhibits the intracellular autophosphorylation of the EML4-ALK fusion polypeptide v1 in a concentration-dependent manner”. Besides, the “Inhibition on autophosphorylation (BA/F3cells)” value in experiment [2] (final concentration 10 μM) came out at 74%. In experiment [7], the “cell growth of v1 expressing BA/F3 cells (FIG. 6(b))” value is “the cell growth was markedly inhibited by concentration-dependence of compound A and cell death was induced”. Moreover, the “cell growth of CD8 expressing BA/F3 cells (FIG. 6(a))” value in experiment [8] was “a slight growth inhibition was observed”. Further, the “Inhibition on autophosphorylation (3T3cells)” value in experiment [3] (final concentration 10 μM) worked out at 82%. Further, the Inhibition on autophosphorylation in experiment [4] (final concentration 10 μM) is given as 104%. The “Inhibition on peptide substrate” value in experiment [5] (final concentration 10 μM) was determined as 99%. The “inhibition rate of anchorage independent growth, U-87MG cell” value with U-87MG cells (final concentration 10 μM) is given as 15%. Further, the “inhibition rate of anchorage independent growth, v1 expressing 3T3 cells” value with v1 expressing 3T3 cells (final concentration 10 μM, 3 days, Day 0 = 100%, Day 3 = 0% inhibition) is 106%.

Source of the values: patent US9932589B2, “EML4-ALK fusion gene” (Astellas Pharma Inc., priority 2006, dated 2018).
